Test results reported in patent publication US20230416262A1, “TRPML MODULATORS” (Casma Therapeutics, Inc., priority 2020, published 2023).

Assays:
[1] = system: TFEB; assay: TFEB nuclear translocation assay; type: cell-based; settings: Homo sapiens; HeLa wt or HeLa TRPML1 KO cells, treated for 2 hrs; ratio of nuclear to ring-region TFEB intensity
How it was run: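 HeLa wild-type or TRPML1 KO cells treated 2 h with compound at 37 °C, PFA-fixed, immunostained for TFEB (Alexa 488) with Hoechst nuclei. Imaged at ×20, four fields/well. Value is ratio of nuclear to perinuclear-ring TFEB intensity, with nuclei counts.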

[2] = system: THP-1 cells; assay: Lamp1 lysosomal exocytosis assay; type: cell-based; settings: Homo sapiens, 55 min, 55 min incubation, top dose 20 μM
How it was run: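 THP-1 cells (1e5/well) exposed to a 7-point 3-fold compound series, top final 20 μM, for 55 min at 37°C. Surface Lamp1 then stained with Lamp1-PE on ice in buffer containing 80 μM Dynasore, and read by flow cytometry as PE geometric mean on live, sytox-negative singlets.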

Structure (SMILES) | EC50 [1] | EC50 [2]
CN(C)S(=O)(=O)c1ccc(S(=O)(=O)N2CC3(CCN(C(=O)OCc4ccccc4)CC3)c3ccccc32)cc1 [Compound I-104] | ≤ 2000 nM | ≤ 500 nM
CN(C)S(=O)(=O)c1ccc(S(=O)(=O)N2CC3(CN(C(=O)OCc4ccccc4)C3)c3ccccc32)cc1 [Compound I-105, benzyl 1′-[4-(dimethylsulfamoyl)benzenesulfonyl]-1′,2′-dihydrospiro[azetidine-3,3′-indole]-1-carboxylate] | ≤ 2000 nM | ≥ 5010 nM
CN(C)S(=O)(=O)c1ccc(S(=O)(=O)N2CC3(CCCC3)Oc3ccccc32)cc1 [Compound I-116, 4-((3,4-dihydrospiro[1,4-benzoxazine-2,1′-cyclopentan]-4-yl}sulfonyl)-N,N-dimethylbenzene-1-sulfonamide] | ≤ 2000 nM | ≥ 5010 nM
CN(C)S(=O)(=O)c1ccc(S(=O)(=O)N2CC3(CCN(C(=O)C(C)(C)C)CC3)c3ccccc32)cc1 [Compound I-118, 4-{[1′-(2,2-dimethylpropanoyl)-1,2-dihydrospiro[indole-3,4′-piperidin]-1-yl]sulfonyl}-N,N-dimethylbenzene-1-sulfonamide] | ≤ 2000 nM | 1010 to 5000 nM
COC1CCC2(CC1)CN(S(=O)(=O)c1ccc(S(=O)(=O)N(C)C)cc1)c1ccccc12 (stereo not drawn) [Compound I-119, 4-({4-methoxy-1′,2′-dihydrospiro[cyclohexane-1,3′-indol]-1′-yl}sulfonyl)-N,N-dimethylbenzene-1-sulfonamide] | ≤ 2000 nM | 1010 to 5000 nM
CC(F)(F)CN1CCC2(CC1)CN(S(=O)(=O)c1ccc(C(F)F)cc1)c1ccccc12 [Compound I-122, 1-((4-(difluoromethyl)phenyl)sulfonyl)-1′-(2,2-difluoropropyl)spiro[indoline-3,4′-piperidine]] | ≤ 2000 nM | ≥ 5010 nM
CN(C)S(=O)(=O)c1ccc(S(=O)(=O)N2CC3(CCCC3)n3nccc32)cc1 [Compound I-124, 4-({1′,2′-dihydrospiro[cyclopentane-1,3′-pyrazolo[1,5-a]imidazol]-1′-yl}sulfonyl)-N,N-dimethylbenzene-1-sulfonamide] | ≥ 10000 nM | ≥ 5010 nM
CN(C)S(=O)(=O)c1ccc(S(=O)(=O)N2CCC3(CCN(CC(F)(F)F)CC3)c3ccccc32)cc1 [Compound I-126, N,N-dimethyl-4-((1-(2,2,2-trifluoroethyl)-2′,3′-dihydro-1′H-spiro[piperidine-4,4′-quinolin]-1′-yl)sulfonyl)benzenesulfonamide] | ≤ 2000 nM | ≥ 5010 nM
CN(C)S(=O)(=O)c1ccc(S(=O)(=O)N2CC3(CCCC3)c3ccncc32)cc1 [Compound I-127, 4-({1′,2′-dihydrospiro[cyclopentane-1,3′-pyrrolo[2,3-c]pyridin]-1′-yl}sulfonyl)-N,N-dimethylbenzene-1-sulfonamide] | 2010 to 8000 nM | 1010 to 5000 nM
CN(C)S(=N)(=O)c1ccc(S(=O)(=O)N2CC3(CCCCC3)c3ccccc32)cc1 (stereo not drawn) [Compound I-129, N,N-dimethyl-4-(spiro[cyclohexane-1,3′-indolin]-1′-ylsulfonyl)benzenesulfonimidamide] | ≤ 2000 nM | 510 to 1000 nM
O=C(OCc1ccccc1)N1CCC2(CC1)CN(S(=O)(=O)c1ccc(C(F)F)cc1)c1cccc(F)c12 [Compound I-130, benzyl 1-[4-(difluoromethyl)benzenesulfonyl]-4-fluoro-1,2-dihydrospiro[indole-3,4′-piperidine]-1′-carboxylate] | ≤ 2000 nM | ≤ 500 nM
O=C(OCc1ccccc1)N1CCC2(CC1)CN(S(=O)(=O)c1ccc(C(F)F)cc1)c1cc(F)ccc12 [Compound I-131, benzyl 1-((4-(difluoromethyl)phenyl)sulfonyl)-6-fluorospiro[indoline-3,4′-piperidine]-1′-carboxylate] | ≤ 2000 nM | ≥ 5010 nM
O=C(OCc1ccccc1)N1CCC2(CC1)CN(S(=O)(=O)c1ccc(C(F)F)cc1)c1ccc(F)cc12 [Compound I-132] | ≤ 2000 nM | ≥ 5010 nM
O=C(OCc1ccccc1)N1CCC2(CC1)CN(S(=O)(=O)c1ccc(C(F)F)cc1)c1c(F)cccc12 [Compound I-133, benzyl 1-((4-(difluoromethyl)phenyl)sulfonyl)-7-fluorospiro[indoline-3,4′-piperidine]-1′-carboxylate] | ≤ 2000 nM | ≥ 5010 nM
O=C(OCc1ccccc1)N1CCC2(CC1)CN(S(=O)(=O)c1ccc(C(F)F)cc1)c1cccnc12 [Compound I-134, benzyl 1′-[4-(difluoromethyl)benzenesulfonyl]-1′,2′-dihydrospiro[piperidine-4,3′-pyrrolo[3,2-b]pyridine]-1-carboxylate] | ≤ 2000 nM | ≤ 500 nM
CCOC[C@]1(C)CC[C@]2(CC1)CN(S(=O)(=O)c1ccc(C(F)F)cc1)c1ccccc12 [Compound I-137, (1r,4r)-1′-[4-(difluoromethyl)benzenesulfonyl]-4-(ethoxymethyl)-4-methyl-1′,2′-dihydrospiro[cyclohexane-1,3′-indole]] | ≤ 2000 nM | ≤ 500 nM
O=C(OCc1ccccc1)N1CCC2(CC1)CN(S(=O)(=O)c1ccc(C(F)(F)C3CC3)cc1)c1ccccc12 [Compound I-139, benzyl 1-((4-(cyclopropyldifluoromethyl)phenyl)sulfonyl)spiro[indoline-3,4′-piperidine]-1′-carboxylate] | ≤ 2000 nM | ≤ 500 nM
CN(C)S(=O)(=O)c1ccc(S(=O)(=O)N2CC3(CCN(C(=O)OCC4CC4)CC3)n3nccc32)cc1 [Compound I-145, cyclopropylmethyl 1′-[4-(dimethylsulfamoyl)benzenesulfonyl]-1′,2′-dihydrospiro[piperidine-4,3′-pyrazolo[1,5-a]imidazole]-1-carboxylate] | ≥ 10000 nM | ≥ 5010 nM
Cc1cc2n(n1)C1(CCCCC1)CN2S(=O)(=O)c1ccc(C(F)F)cc1 [Compound I-148, 1′-[4-(difluoromethyl)benzenesulfonyl]-6′-methyl-1′,2′-dihydrospiro[cyclohexane-1,3′-pyrazolo[1,5-a]imidazole]] | ≥ 10000 nM | ≥ 5010 nM
Cc1ccc2c(c1)N(S(=O)(=O)c1ccc(S(=N)(=O)N(C)C)cc1)CC21CCCCC1 (stereo not drawn) [Compound I-149, N,N-dimethyl-4-({6′-methyl-1′,2′-dihydrospiro[cyclohexane-1,3′-indol]-1′-yl}sulfonyl)benzene-1-sulfonoimidamide] | ≤ 2000 nM | ≤ 500 nM
Cc1nn2c(c1C)N(S(=O)(=O)c1ccc(S(=O)(=O)N(C)C)cc1)CC21CCCCC1 [Compound I-154, 4-({6′,7′-dimethyl-1′,2′-dihydrospiro[cyclohexane-1,3′-pyrazolo[1,5-a]imidazol]-1′-yl}sulfonyl)-N,N-dimethylbenzene-1-sulfonamide] | ≥ 10000 nM | ≥ 5010 nM
Cc1cnc2c(c1)N(S(=O)(=O)c1ccc(S(=N)(=O)N(C)C)cc1)CC21CCCCC1 (stereo not drawn) [Compound I-157, N,N-dimethyl-4-({6′-methyl-1′,2′-dihydrospiro[cyclohexane-1,3′-pyrrolo[3,2-b]pyridin]-1′-yl}sulfonyl)benzene-1-sulfonoimidamide] | ≤ 2000 nM | ≥ 5010 nM
O=C(OCc1cccnc1)N1CCC2(CC1)CN(S(=O)(=O)c1ccc(C(F)F)cc1)c1ccccc12 [Compound I-158, (pyridin-3-yl)methyl 1-[4-(difluoromethyl)benzenesulfonyl]-1,2-dihydrospiro[indole-3,4′-piperidine]-1′-carboxylate] | ≤ 2000 nM | 510 to 1000 nM
CC(C)OC(=O)N1CCC2(CC1)CN(S(=O)(=O)c1ccc(C(F)F)cc1)c1ccccc12 [Compound I-160, propan-2-yl 1-[4-(difluoromethyl)benzenesulfonyl]-1,2-dihydrospiro[indole-3,4′-piperidine]-1′-carboxylate] | ≤ 2000 nM | ≤ 500 nM
O=C(c1ccccc1)N1CCC2(CC1)CN(S(=O)(=O)c1ccc(C(F)F)cc1)c1ccccc12 [Compound I-161, 1′-benzoyl-1-[4-(difluoromethyl)benzenesulfonyl]-1,2-dihydrospiro[indole-3,4′-piperidine]] | 2010 to 8000 nM | 1010 to 5000 nM
O=C(C1CC1)N1CCC2(CC1)CN(S(=O)(=O)c1ccc(C(F)F)cc1)c1ccccc12 [Compound I-162, 1′-cyclopropanecarbonyl-1-[4-(difluoromethyl)benzenesulfonyl]-1,2-dihydrospiro[indole-3,4′-piperidine]] | ≥ 10000 nM | ≥ 5010 nM
O=S(=O)(c1ccc(C(F)F)cc1)N1CC2(CCN(Cc3cnccn3)CC2)c2ccccc21 [Compound I-163, 1-[4-(difluoromethyl)benzenesulfonyl]-1′-[(pyrazin-2-yl)methyl]-1,2-dihydrospiro[indole-3,4′-piperidine]] | ≤ 2000 nM | ≥ 5010 nM
O=S(=O)(c1ccc(C(F)F)cc1)N1CC2(CCN(Cc3ccccn3)CC2)c2ccccc21 [Compound I-164] | ≤ 2000 nM | ≥ 5010 nM
O=S(=O)(c1ccc(C(F)F)cc1)N1CC2(CCN(Cc3cccnc3)CC2)c2ccccc21 [Compound I-165, 1-[4-(difluoromethyl)benzenesulfonyl]-1′-[(pyridin-3-yl)methyl]-1,2-dihydrospiro[indole-3,4′-piperidine]] | 2010 to 8000 nM | ≥ 5010 nM
O=S(=O)(c1ccc(C(F)F)cc1)N1CC2(CCN(Cc3ccncc3)CC2)c2ccccc21 [Compound I-166, 1-[4-(difluoromethyl)benzenesulfonyl]-1′-[(pyridin-4-yl)methyl]-1,2-dihydrospiro[indole-3,4′-piperidine]] | ≤ 2000 nM | ≥ 5010 nM
